Tests used:
[1] = anion of ionic liquid; cited from earlier work
[2] = test system: intestinal villi of Wistar rats; experiment: In vivo local delivery of antibody-CGLY via intrajejunal administration; settings: rat, 1 mg mL^−1 FITC-IgG in 50% v/v CGLY2:1, 2 h
Method: Rats receiving equivalent saline injection without FITC-IgG were used as the negative control group. After 2 h, the rats were sacrificed and jejunal tissues were harvested and preserved using Swiss-rolling technique^[14]. […] The tissues were then frozen at −80° C. in the presence of optimum cutting temperature (OCT) compound and tissue sections were cut into 25 m thickness. was visualized using a slide scanner microscope (ZEISS Axio Scan.Z1) and the images processed using Zen™ (Blue edition) software.

siRNA = settings: IL 50% (v/v), 30 min incubation, dialysis 72 h
Method: (§1) Skin-penetrating IL-RNA complexes. The cholinium-based IL library was synthesized as described previously (26). Briefly, the cation, choline bicarbonate, and various anions were mixed at a 1:2 ratio to prepare ILs following salt metathesis reaction. […] The resulting IL solution was dried using a rotary evaporator at 20 mbar at 60° C. for 2 hours. The residual water was removed in a vacuum oven at 60° C. for 48 hours. The ILs that were viscous at RT were characterized via NMR with dimethyl sulfoxide (DMSO)-d6 on an Agilent DD2 600-MHz spectrometer (Supplementary Materials and Methods). ILs were mixed with RNA (100 μM) at a volumetric ratio of 1:1 and incubated for 30 min at RT. The RNA-IL solutions (1 ml) were dialyzed against 10 mM sodium phosphate buffer for 72 hours using Dialysis Cassettes (10,000 molecular weight cutoff, Invitrogen). The concentration of RNA was confirmed and normalized using a NanoDrop instrument (Thermo Fisher Scientific). The stability of the RNA in the IL solution was determined using CD and gel electrophoresis.
RNA concentrations were normalized in 10 mM sodium phosphate buffer and incubated for 30 mins at RT to ensure reduction and equilibrium, and then loaded into quartz cuvettes. Near-UV spectra were recorded from 200 nm to 310 nm at 20° C. by averaging 5 scans at 0.1 nm intervals for each sample. Spectrum Manager 2 was used to subtract the baseline and the spectra were plotted as molar ellipticity, [0] (deg.cm2.dmol-1).

[3] = cation:anion 1:2
Source text: IL selection. A library of ILs was designed and synthesized to assess siRNA delivery into skin. Cholinium was used as the cation in all ILs due to its biocompatibility. Several different anions were used to synthesize ILs (FIGS. 24A-24E). […] Other anions were chosen for several reasons. First, anions containing shorter linear carbon chains were chosen in contrast to geranic acid to assess the impact of the chain length on siRNA stability and delivery. Anions with aromatic groups were chosen since they might interact with the stacked RNA base pairs via electrostatic, hydrophobic, and polar interactions. All ILs were prepared at a stoichiometric ratio of 1:2 (cation:anion) and were assessed for stability and siRNA delivery. […] In addition, since both interleukin and ILs have been denoted as “IL,” for the purpose of clarity, all interleukins are referred by a numerical value throughout the manuscript.
as §1

porcine skin = experiment: Porcine skin penetration of Cy5-labeled siRNA in Franz diffusion cells (tape-stripping); format: in vitro ADME; settings: 24 h, IL 50% v/v or naked siRNA
Method: Skin penetration studies. Skin penetration studies were performed using porcine skin in FDCs, as described previously (40). A total volume of 20 μl of Cy5-labeled RNA (50 μM) in IL solutions was applied to the porcine skin surface and was incubated at 40° C. for 24 hours under occlusive conditions with moderate stirring. The skin permeability of RNA was visualized and quantified using confocal microscopy and tape-stripping techniques, respectively.
Porcine skin penetration ex-vivo studies Porcine skin studies were carried out in Franz diffusion cells (FDC) with penetration area of 1.77 cm^2. The porcine skin was obtained from Lampire Biological Laboratories, Pipersville, PA, USA. Briefly skins were thawed, hairs were trimmed, and washed with phosphate buffer saline (PBS, pH 7.4). A 36 mm punch was used to cut out a disc of the skin and a scalpel was used to get rid of the connective tissues and subcutaneous fat layers. […] 1 mL PBS was added to the donor chamber and the conductivity was measured using a waveform generator (Agilent 33120) and voltmeter (Fluke 87 True RMS Multimeter) at a frequency of 100 Hz and amplitude, 100 mV. Only skin samples with a measured transepidermal conductivity of less than […] were used for further studies. […] Following incubation, the skin was removed from the cell, washed gently with PBS and were further analyzed using tape-stripping and confocal microscopy. […]

For `CC(C)=CC(=O)O` [3,3-dimethylacrylic acid], the pKa [1] is listed as 5.02.

For `O=S(=O)(O)c1ccc(O)cc1` [4-hydroxybenzenesulfonic acid], the pKa [1] is given as 9.11.

For `O=C(O)c1cccc(-c2ccccc2)c1` [Bipheny1-3-carboxylic acid], the pKa [1] is given as 4.14.

For `C[N+](C)(C)CCO.O=C([O-])CO` [CGLY2:1, choline-glycolate], the “FITC-IgG fluorescence signal on intestinal villi vs no-CGLY2:1 control” value [2] was “over 4.5 fold”.

In the case of `O=P(O)(O)Oc1ccccc1` [Phenylphosphoric acid], the pKa [1] is listed as 9.99.

With “choline and biphenyl-3-carboxylic acid [CABA]” the “siRNA secondary structure (CD, band at 210 nm)” value (from here on “siRNA secondary structure”) (siRNA) was “notable alteration in the a helix backbone” and the “physical state at room temperature” value [3] was “solidified or formed a gel”.

In the case of choline and dimethylacrylic acid [CADA], the “siRNA secondary structure” value (siRNA) is reported as “notable alteration in the a helix backbone” and the “physical state at room temperature” value [3] is reported as “viscous liquid”.

With “choline and geranic acid [CAGE, reference compound]” the “siRNA delivered into the epidermis” value (porcine skin) was “About 0.20 nmol/cm2”, the “siRNA secondary structure” value (siRNA) was “notable alteration in the a helix backbone” and the “physical state at room temperature” value [3] was “viscous liquid”.

In the case of “choline and phenylphosphoric acid [CAPP]”, the “physical state at room temperature” value [3] is reported as “solidified or formed a gel”.

With choline and phenylpropanoic acid [CAPA] the “siRNA secondary structure” value (siRNA) was “retained the secondary structure of siRNA” and the “physical state at room temperature” value [3] was “viscous liquid”.
